This test deals with patients with a single variant in the ChAT gene (340L>F or 510R>Q). As to the kind of experiment: Clinical response to medications prior to sequencing in patients carrying a ChAT gene variant. As to conditions: 2/2 patients, dampens opposing sympathetic activity.

As for `CC(C)NCC(O)COc1cccc2ccccc12` (stereo not shown) [propranolol], the clinical response entry is “clinical improvement”.

For the origin of these results see patent US20160051527A1, “METHODS AND KITS FOR TREATING AND CLASSIFYING INDIVIDUALS AT RISK OF OR SUFFERING FROM A NEUROLOGICAL DYSFUNCTION OR DISORDER” (priority 2013, published 2016).
